Data reported in paper PMC7955127, “Preclinical small molecule WEHI-7326 overcomes drug resistance and elicits response in patient-derived xenograft models of human treatment-refractory tumors” (Cell Death & Disease, 2021).

Experiments:
[1] = system: LoVo; assay: Cell growth inhibition assay, LoVo; assay type: cell-based; conditions: Homo sapiens, colon carcinoma, 72 h viability assay, CellTiterGlo, mean of 3 ± SEM, read-out: IC50 (inhibition of cellular proliferation)
Protocol: Cells were plated at a density of between 500 to 5000 cells per well for adherent cell lines depending on doubling time, and 15,000 cells per well for lymphoblastic leukemia cell lines, in a 96-well plate in 200 μl of growth media. Plates were incubated overnight at 37 °C before adding the inhibitors. Inhibitors were serially diluted from the stock solutions in complete medium and added to the cells. […] Cell viability was assessed by the AlamarBlue (Invitrogen) or CellTiterBlue/Glo (Promega) method according to manufacturer’s instructions. The curve fits and IC50 values were generated in PRISM (GraphPad, San Diego, CA).

[2] = Fourteen day maximum tolerated dose study, twice weekly i.v. (non-GLP); assay type: in vivo
Protocol: Fourteen day maximum tolerated dose (MTD) study of WEHI-7326 dihydrochloride following twice weekly intravenous administration in female Sprague-Dawley rats. All treatments were administered i.v. (tail vein) in a dosing volume of 10 mL/kg. Treatment was administered in a staggered manner, beginning with WEHI-7326 at 7.5 mg/kg and then increasing the dose on subsequent days. For all data calculations and presentation, the first day of treatment for each group is designated as Day 1. One animal died immediately following a single dose of WEHI-7326 at 60 mg/kg (Group 2). The remaining scheduled treatments at this dose were cancelled and dosing recommenced at a reduced dose of 10 mg/kg to the remaining 3 animals in this group. Intravenous (tail vein) treatment of female Sprague-Dawley rats with WEHI-7326 was tolerated without serious adverse events or body weight loss exceeding the ethical limit at doses of 7.5 and 10 mg/kg in this study.
Sixteen female Sprague-Dawley rats were microchipped and randomised into four groups of four based on body weight two days prior to the first day’s treatment. The test article was to be tested at four dose concentrations of 7.5 mg/kg, 15 mg/kg, 30 mg/kg and 60 mg/kg, administered i.v. via tail vein injection at a dose rate of 10 mL/kg. […] Animals were to be dosed on their respective Study Day 1, then twice weekly over two weeks. Body weights were measured once prior to dose administration, then daily for the duration of the study and at termination. Clinical observations were performed on a daily basis. Due to the immediate death of one animal dosed with WEHI-7326 at 60 mg/kg and subsequent development of signs of toxicity in animals that had received three doses at 15 mg/kg and two doses at 30 mg/kg, the dose level for the remaining three animals in Group 4 was reduced to 10 mg/kg (four doses). As treatment with WEHI-7326 was tolerated without serious adverse events or body weight loss exceeding the ethical limit at doses of 7.5 and 10 mg/kg in this study, the maximum tolerated dose was determined to be 10 mg/kg.

[3] = female rats, 7.5 mg/kg twice weekly i.v.
[4] = female rats, 10 mg/kg twice weekly i.v.
[5] = female rats, 15 mg/kg twice weekly i.v.
[6] = female rats, 30 mg/kg twice weekly i.v.

In the case of `COc1ccc(CNc2nc(NCc3ccc(CN)cc3)nc(NN3CC(=O)NC3=O)n2)cc1` [WEHI-7326], the IC50 [1] is reported as 42.2 ± 9.9 nM, the Lethality ([2]; female Sprague-Dawley rats, 60 mg/kg i.v.) is reported as “acutely lethal” and the “Mild red staining right fore limb (number of animals)” value [2, 3] is reported as 1/4. For the same molecule, the “No remarkable observation (number of animals)” value [2, 3] was 3/4, the “Mild piloerection (number of animals)” value [2, 4] was 3/3 and the “Mild red staining of snout, fore limbs and/or head (number of animals)” value [2, 4] was 3/3. For the same molecule, the “Urine-stained fur (number of animals)” value [2, 4] was 1/3, the “Discharge both eyes (number of animals)” value [2, 5] was 1/4 and the “Early termination (StudyDay 9) due to adverse clinical signs and excess body weight loss (number of animals)” value [2, 5] was 3/4. The “Mild red staining of eyes and or head (number of animals)” value [2, 5] was 2/4, the “Mild squinting both eyes (number of animals)” value [2, 5] was 1/4 and the “Mild/moderate hunched posture (number of animals)” value [2, 5] was 4/4. For the same molecule, the “Mild/moderate piloerection (number of animals)” value [2, 5] was 4/4, the “Urine-stained fur (number of animals)” value [2, 5] was 1/4 and the “Early termination (StudyDay 5) due to adverse clinical signs and excess body weight loss (number of animals)” value [2, 6] was 4/4. The “Mild excess salivation (number of animals)” value [2, 6] was 2/4, the “Mild piloerection (number of animals)” value [2, 6] was 4/4 and the “Mild red staining of limbs, eyes, snout and or head (number of animals)” value [2, 6] was 4/4. The “Mild squinting both eyes (number of animals)” value [2, 6] was 4/4, the “Mild/moderate hunched posture (number of animals)” value [2, 6] was 4/4 and the “Mild/moderate labored breathing (number of animals)” value [2, 6] was 4/4. The “Mild/moderate lethargy (number of animals)” value [2, 6] was 4/4, the “Urine-stained fur (number of animals)” value [2, 6] was 4/4 and the “Found dead immediately after administration (number of animals)” value ([2]; female rats, 60 mg/kg i.v., single dose) was 1/1. It also gave an MTD at 14 days ([2]; rat, in vivo, iv, female Sprague-Dawley rats, twice weekly i.v., 14 day) of 10 mg/kg.
